These results are taken from patent publication US9452159B2, “6-aminopyridine-3-ol derivatives or pharmaceutically acceptable salts thereof, and pharmaceutical composition containing same as active ingredients for preventing or treating diseases caused by angiogenesis” (Research Cooperation Foundation of Yeungnam University, priority 2011, dated 2016).

Assay [1] has as its system chorioallantoic membrane (CAM). Description: Chorioallantoic membrane (CAM) assay, VEGF-derived angiogenesis. It counts as in vivo, chick. As to conditions: for angiogenesis inhibiting effects: VEGF-treated CAM, summary of Table 1, 6a compared with SU4312, batimastat and α-tocopherol. As to the method: To examine angiogenesis inhibiting effects in vivo, CAM assay was performed (Nguyen Metal., Microvascular Res., 47, pp 31-40, 1994). Hen's fertile eggs were incubated at a temperature of 37° C. and in relative humidity 55%, and on the 10th day after the incubation, an air sac site was punched by using a hypodermic needle (Greencross Medical Science Corp, Korea) to form a first hole, and then, a planar site of the fertile egg where a window was to be formed was punched to form a second hole. Air was removed through the first pore of the air sac site to allow the chorioallantoic membrane (CAM) to be separated from the shell of the fertile egg, and this site was cut by using a grinding wheel (Multipro 395JA, Dremel, Mexico) to form a window. […] Through the window, the filter disc was placed on blood vessels, which were then treated with the compounds each dissolved in dimethylsulfoxide (DMSO) and diluted with phosphate buffer solution (PBS) at various concentrations. 3 days after the treatment with the compounds, the CAM site with the filter disc placed thereon was separated, and then washed with a phosphate buffer solution, and an image thereof was obtained by using a stereomicroscope (Stemi SV6 stereomicroscope, Carl Zeiss, Germany) and image-Pro Plus software (Media Cybernetics; Silver Spring, Md., U.S.A.) to count the number of blood vessel branches, and the obtained results were assayed.

The next assay deals with HUVEC cells. Put plainly: VEGF-derived ROS scavenging ability (DCF-DA fluorescence). Type of assay: cell-based. To be noted: HUVEC pretreated 3 hours, then VEGF 15 minutes, compared to VEGF, FIG. 5. As to the method:
DCF-DA (2′,7′-dichlorofluorescein diacetate) was used to measure a VEGF-derived ROS scavenging ability in HUVEC cells. When ROS exists in cells, DCF-DA is oxidized into fluorescent DCF, thereby emitting green fluorescent light. 1×10^5 concentration of HUVEC was spread onto a 0.2% gelatin coated 8-well plate, and then incubated for 24 hours. The cells were pretreated with Compounds 6a or 6i for 3 hours and then, treated with VEGF for 15 minutes, and then, washed three times with PBS (pH 7.4), and then, 10 μM of DCF-DA was added to EBM-2 medium, which was then placed in dark condition for 30 minutes. Then, the cells were washed three times with PBS, and a degree of intracellular fluorescence was measured by using a fluorescent microscope.

Another assay relates to A549 lung cancer cells. Put plainly: Oncogenesis-derived angiogenesis and tumor growth on CAM inoculated with A549 lung cancer cells. To be noted: A549 cells 1.5×10^6 cell/CAM, various concentrations, five days after inoculation; FIG. 4. Type of assay: in vivo, chick. The method, then:
Hen's fertile eggs were incubated, and on the 9th day, a window was formed in the same manner as in Experimental Example 1, and instead of a disc, A549 lung cancer cells were mixed with matrigel at a ratio of 1:1, and then the cells were treated with Compounds 6a and 6i and inoculated at a concentration of 1.5×10^6 cell/CAM. Five days after the inoculation, the CAM site where tumors developed was separated and washed with a phosphate buffer solution, and then, an image thereof was obtained by using a stereomicroscope (Stemi SV6 stereomicroscope, Carl Zeiss, Germany) and Image-Pro Plus software (Media Cybernetics; Silver Spring, Md., U.S.A.) to count the number of blood vessel branches, and the results were assayed.

The mark [2] stands for this setting: Gallus gallus, 72 h, VEGF (50 ng/CAM) + 3.0 ng/CAM, 1.3 μM, 3 days after treatment, read-out: Inhibition ratio.
The mark [3] stands for this setting: VEGF (50 ng/CAM) + 3.0 ng/CAM, 1.3 μM, 3 days after treatment.
Setting [4] is: Gallus gallus, 72 h, VEGF (50 ng/CAM) + 3.0 ng/CAM, 1.0 μM, 3 days after treatment, read-out: Inhibition ratio.
Setting [5] is: VEGF (50 ng/CAM) + 3.0 ng/CAM, 1.0 μM, 3 days after treatment.
[6] abbreviates: Gallus gallus, 72 h, VEGF (50 ng/CAM) + 3.0 ng/CAM, 1.1 μM, 3 days after treatment, read-out: Inhibition ratio.
Setting [7] is: VEGF (50 ng/CAM) + 3.0 ng/CAM, 1.1 μM, 3 days after treatment.
Where [8] appears, read: Gallus gallus, 72 h, VEGF (50 ng/CAM) + 2.0 ng/CAM, 1.0 μM, 3 days after treatment, read-out: Inhibition ratio.
Setting [9] is: VEGF (50 ng/CAM) + 2.0 ng/CAM, 1.0 μM, 3 days after treatment.
The mark [10] stands for this setting: VEGF (50 ng/CAM) + 1.0 μg/CAM, 378 μM, 3 days after treatment.
Setting [11] is: VEGF (50 ng/CAM) + 3.0 ng/CAM, 0.7 μM, 3 days after treatment.
[12] abbreviates: VEGF (50 ng/CAM) + 100 ng/CAM, 23 μM, 3 days after treatment.

Like-named read-outs stand apart in the source and are kept apart here.

Regarding `CNC(=O)[C@H](Cc1ccccc1)NC(=O)[C@H](CC(C)C)[C@H](CSc1cccs1)C(=O)NO` [Batimastat, reference compound], in assay [1] (Gallus gallus, 72 h, VEGF (50 ng/CAM) + 1.0 μg/CAM, 200 μM, 3 days after treatment, read-out: Inhibition ratio), the inhibition in vivo at 200 µM came to 78.4 ± 7.4%. Moreover, in assay [1] (VEGF (50 ng/CAM) + 1.0 μg/CAM, 200 μM, 3 days after treatment), the “Number of blood vessel branches/main blood vessel” value is listed as 19.9 ± 2.87^8.
`CCCCCCNc1nc(C)c(O)c(C)c1C` [Compound 6b, 6-(hexylamino)-2,4,5-trimethylpyridin-3-ol]: the inhibition in vivo at 1.3 µM in assay [1] (setting [2]) stood at 53.7 ± 10.3%. Besides, in assay [1] (setting [3]), the “Number of blood vessel branches/main blood vessel” value is reported as 26.3 ± 2.0^8.
Take `CCCCCCCCCCCCCCCCNc1nc(C)c(O)c(C)c1C` [Compound 6c, 6-(hexadecylamino)-2,4,5-trimethylpyridin-3-ol]: in assay [1] (Gallus gallus, 72 h, VEGF (50 ng/CAM) + 3.0 ng/CAM, 0.8 μM, 3 days after treatment, read-out: Inhibition ratio), the inhibition in vivo at 0.8 µM is 30.1 ± 20%. Also, the “Number of blood vessel branches/main blood vessel” value in assay [1] (VEGF (50 ng/CAM) + 3.0 ng/CAM, 0.8 μM, 3 days after treatment) is reported as 30.8 ± 3.8^8.
Regarding `Cc1nc(NCCCO)c(C)c(C)c1O` [Compound 6d-1, 6-((3-hydroxypropyl)amino)-2,4,5-trimethylpyridin-3-ol], the inhibition in vivo at 1.4 µM in assay [1] (Gallus gallus, 72 h, VEGF (50 ng/CAM) + 3.0 ng/CAM, 1.4 μM, 3 days after treatment, read-out: Inhibition ratio) came to 46.3 ± 12%. In assay [1] (VEGF (50 ng/CAM) + 3.0 ng/CAM, 1.4 μM, 3 days after treatment), the “Number of blood vessel branches/main blood vessel” value was 27.8 ± 2.3^8.
Regarding `Cc1nc(NCCCOc2nc(C)c(O)c(C)c2C)c(C)c(C)c1O` [Compound 6d-2, 6-(3-((5-hydroxy-3,4,6-trimethylpyridin-2-yl)amino)propoxy)-2,4,5-trimethylpyridin-3-ol], in assay [1] (Gallus gallus, 72 h, VEGF (50 ng/CAM) + 3.5 ng/CAM, 1.0 μM, 3 days after treatment, read-out: Inhibition ratio), the inhibition in vivo at 1 µM stood at 67.3 ± 13.9%. In assay [1] (VEGF (50 ng/CAM) + 3.5 ng/CAM, 1.0 μM, 3 days after treatment), the “Number of blood vessel branches/main blood vessel” value is 26.2 ± 4.4^8. The angiogenesis inhibiting effects entry in assay [1] is listed as “excellent angiogenesis inhibiting effects”.
Turning to `Cc1nc(NC2CCCCC2)c(C)c(C)c1O` [Compound 6e, 6-(cyclohexylamino)-2,4,5-trimethylpyridin-3-ol], the inhibition in vivo at 1.3 µM in assay [1] (setting [2]) was determined as 36.8 ± 10.7%. Besides, in assay [1] (setting [3]), the “Number of blood vessel branches/main blood vessel” value is 35.3 ± 4.0^8.
As to `Cc1nc(NCc2ccccc2)c(C)c(C)c1O` [Compound 6f, 6-(benzylamino)-2,4,5-trimethylpyridin-3-ol], the inhibition in vivo at 1.2 µM in assay [1] (Gallus gallus, 72 h, VEGF (50 ng/CAM) + 3.0 ng/CAM, 1.2 μM, 3 days after treatment, read-out: Inhibition ratio) turned out to be 56.7 ± 16.8%. Further, the “Number of blood vessel branches/main blood vessel” value in assay [1] (VEGF (50 ng/CAM) + 3.0 ng/CAM, 1.2 μM, 3 days after treatment) is given as 25.8 ± 3.2^8.
Consider `Cc1nc(Nc2ccccc2)c(C)c(C)c1O` [Compound 6g, 2,4,5-trimethyl-6-(phenylamino)pyridin-3-ol], for which the inhibition in vivo at 1.3 µM in assay [1] (setting [2]) is 69.4 ± 5.7%. Moreover, the “Number of blood vessel branches/main blood vessel” value in assay [1] (setting [3]) is 23.3 ± 1.1^8. In assay [1], the angiogenesis inhibiting effects result is recorded as “excellent angiogenesis inhibiting effects”.
For `Br.Cc1nc(Nc2ccccc2)c(C)c(C)c1O` [Compound 6g-HBr, 2,4,5-trimethyl-6-(phenylamino)pyridin-3-ol hydrobromide], in assay [1] (setting [4]), the inhibition in vivo at 1 µM is 55 ± 10.6%. In addition, the “Number of blood vessel branches/main blood vessel” value in assay [1] (setting [5]) is 28.6 ± 3.9^8.
`Cc1nc(Nc2ccccc2C(C)C)c(C)c(C)c1O` [Compound 6h, 6-((2-isopropylphenyl)amino)-2,4,5-trimethylpyridin-3-ol]: the inhibition in vivo at 1.1 µM in assay [1] (setting [6]) amounted to 55.3 ± 20.3%. In addition, in assay [1] (setting [7]), the “Number of blood vessel branches/main blood vessel” value is on record as 28.4 ± 2.7^8.
`Cc1nc(Nc2ccc([N+](=O)[O-])cc2)c(C)c(C)c1O` [Compound 6i, 2,4,5-trimethyl-6-((4-nitrophenyl)amino)pyridin-3-ol]: in the assay on HUVEC cells, the “degree of intracellular fluorescence (VEGF-derived ROS)” value is “substantial decrease”. Besides, in the assay with A549 lung cancer cells, the oncogenesis-derived angiogenesis entry is “inhibited” and the tumor growth entry was “inhibited”. Besides, the inhibition in vivo at 1 µM in assay [1] (setting [4]) is 74.9 ± 4.9%. For the same compound, in assay [1] (Gallus gallus, CAM treated with various concentrations, FIG. 3, read-out: IC50 with respect to angiogenesis inhibition), the IC50 (commonly the point on the concentration scale where inhibition reaches its midpoint) was found to be 1.8 nM. Besides, in assay [1] (setting [5]), the “Number of blood vessel branches/main blood vessel” value is 26.3 ± 1.6^8.
As to `Cc1nc(Nc2ccc(Br)cc2)c(C)c(C)c1O` [Compound 6j, 6-((4-bromophenyl)amino)-2,4,5-trimethylpyridin-3-ol], in assay [1] (setting [4]), the inhibition in vivo at 1 µM is 61.7 ± 7.7%. The “Number of blood vessel branches/main blood vessel” value in assay [1] (setting [5]) is 30.7 ± 2.6^8.
On to `Cc1nc(Nc2ccc3c(c2)OCO3)c(C)c(C)c1O` [Compound 6k, 6-(benzo[d][1,3]dioxol-5-ylamino)-2,4,5-trimethylpyridin-3-ol], for which, in assay [1] (setting [6]), the inhibition in vivo at 1.1 µM was found to be 62.4 ± 11.6%. Moreover, in assay [1] (setting [7]), the “Number of blood vessel branches/main blood vessel” value is listed as 25.8 ± 4.3^8. For the same compound, the angiogenesis inhibiting effects entry in assay [1] was “excellent angiogenesis inhibiting effects”.
Regarding `Cc1nc(N(c2ccccc2)c2ccccc2)c(C)c(C)c1O` [Compound 6l, 6-(diphenylamino)-2,4,5-trimethylpyridin-3-ol], in assay [1] (setting [4]), the inhibition in vivo at 1 µM was 65.4 ± 14.6%. Moreover, the “Number of blood vessel branches/main blood vessel” value in assay [1] (setting [5]) was 26.8 ± 4.6^8. In assay [1], the angiogenesis inhibiting effects entry is listed as “excellent angiogenesis inhibiting effects”.
Regarding `Cc1nc(N2CCCC2)c(C)c(C)c1O` [Compound 6m, 2,4,5-trimethyl-6-(pyrrolidin-1-yl)pyridin-3-ol], the inhibition in vivo at 1 µM in assay [1] (setting [8]) turned out to be 60.5 ± 12.7%. Besides, the “Number of blood vessel branches/main blood vessel” value in assay [1] (setting [9]) is reported as 27.6 ± 4.2^8. Besides, the angiogenesis inhibiting effects entry in assay [1] is given as “excellent angiogenesis inhibiting effects”.
For the compound `Cc1nc(N2CCN(C)CC2)c(C)c(C)c1O` [Compound 6n, 2,4,5-trimethyl-6-(4-methylpiperazin-1-yl)pyridin-3-ol], the inhibition in vivo at 1 µM in assay [1] (setting [8]) was 24.7 ± 21.3%. For the same compound, the “Number of blood vessel branches/main blood vessel” value in assay [1] (setting [9]) was 39.8 ± 6.8^8.
`Cc1nc(N2CCOCC2)c(C)c(C)c1O` [Compound 6o, 2,4,5-trimethyl-6-morpholinopyridin-3-ol]: the inhibition in vivo at 1 µM in assay [1] (setting [8]) came to 59 ± 11%. For the same compound, in assay [1] (setting [9]), the “Number of blood vessel branches/main blood vessel” value was 28.8 ± 3.7^8.
The like results for `Cc1nc(-n2cccc2)c(C)c(C)c1O` [Compound 6p, 2,4,5-trimethyl-6-(1H-pyrrol-1-yl)pyridin-3-ol] were, in that order, 44 ± 17.2% and 33.6 ± 5.5^8.
`Cc1nc(N(C)c2ccccn2)c(C)c(C)c1O` [Compound 6q, 2,4,5-trimethyl-6-(methyl(pyridin-2-yl)amino)pyridin-3-ol]: in assay [1] (Gallus gallus, 72 h, VEGF (50 ng/CAM) + 2.4 ng/CAM, 1.0 μM, 3 days after treatment, read-out: Inhibition ratio), the inhibition in vivo at 1 µM was 42.2 ± 21.7%. Also, the “Number of blood vessel branches/main blood vessel” value in assay [1] (VEGF (50 ng/CAM) + 2.4 ng/CAM, 1.0 μM, 3 days after treatment) is listed as 34.2 ± 6.9^8.
With `CN(C)c1ccc(/C=C2\C(=O)Nc3ccccc32)cc1` [SU4312, reference compound], in assay [1] (setting [10]), the Inhibition ratio is recorded as 74.6 ± 12.1^8 and the “Number of blood vessel branches/main blood vessel” value is 24 ± 4.6^8.
With `Cc1c(C)c2c(c(C)c1O)CC[C@@](C)(CCC[C@H](C)CCC[C@H](C)CCCC(C)C)O2` [α-Tocopherol, reference compound], in assay [1] (setting [11]), the Inhibition ratio is given as 45.1 ± 9.3^8 and the “Number of blood vessel branches/main blood vessel” value is on record as 32.3 ± 3.5. Besides, in assay [1] (setting [12]), the Inhibition ratio is on record as 64.4 ± 14.2^8 and the “Number of blood vessel branches/main blood vessel” value is on record as 24.3 ± 2.7^8.
